The text below walks through data of ChEMBL document CHEMBL5325398, “Design of Cytochrome P450 1B1 Inhibitors via a Scaffold-Hopping Approach” (J Med Chem, 2023).

In one series the target is T1, Cytochrome P450 1A1 (Homo sapiens, UniProt P04798).
T1 sequence (P04798 whole entry): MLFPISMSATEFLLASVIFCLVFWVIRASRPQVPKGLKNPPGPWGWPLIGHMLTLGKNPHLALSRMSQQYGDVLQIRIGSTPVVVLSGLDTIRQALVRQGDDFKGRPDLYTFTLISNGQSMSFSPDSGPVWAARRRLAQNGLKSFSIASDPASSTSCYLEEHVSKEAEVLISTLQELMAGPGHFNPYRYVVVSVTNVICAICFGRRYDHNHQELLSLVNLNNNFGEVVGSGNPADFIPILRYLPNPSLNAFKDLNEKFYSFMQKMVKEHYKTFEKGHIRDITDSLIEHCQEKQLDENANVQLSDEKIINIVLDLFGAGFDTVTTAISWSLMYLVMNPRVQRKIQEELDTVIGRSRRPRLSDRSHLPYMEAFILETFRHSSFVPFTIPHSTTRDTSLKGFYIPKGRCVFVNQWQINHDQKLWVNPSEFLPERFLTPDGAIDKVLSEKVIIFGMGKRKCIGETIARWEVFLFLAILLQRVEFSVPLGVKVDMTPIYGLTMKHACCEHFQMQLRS
The experiment in a line: Inhibition of CYP1A1 (unknown origin) expressed in HEK293-T-REx cells co-expressing POR incubated for 1 hr by resorufin dye based plate reader analysis. It counts as ADME, cell-based.

The target of series [1] is T2, Cytochrome P450 1B1 (Homo sapiens, UniProt Q16678).
T2 sequence (Q16678 whole entry): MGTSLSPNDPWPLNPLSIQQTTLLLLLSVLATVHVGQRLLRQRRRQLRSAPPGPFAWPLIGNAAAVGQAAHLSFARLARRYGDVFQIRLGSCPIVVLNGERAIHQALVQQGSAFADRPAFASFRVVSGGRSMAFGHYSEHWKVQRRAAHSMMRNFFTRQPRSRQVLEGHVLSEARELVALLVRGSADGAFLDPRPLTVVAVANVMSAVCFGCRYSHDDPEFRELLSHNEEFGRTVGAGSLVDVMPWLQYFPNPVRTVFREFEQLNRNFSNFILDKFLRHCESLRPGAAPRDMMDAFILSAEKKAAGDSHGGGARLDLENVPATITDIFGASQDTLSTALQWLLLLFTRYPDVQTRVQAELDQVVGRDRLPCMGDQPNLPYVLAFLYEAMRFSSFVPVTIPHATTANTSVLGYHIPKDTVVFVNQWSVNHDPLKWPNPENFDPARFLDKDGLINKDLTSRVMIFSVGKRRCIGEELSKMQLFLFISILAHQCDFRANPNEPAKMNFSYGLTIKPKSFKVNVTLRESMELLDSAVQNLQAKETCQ
The experiment in a line: Inhibition of CYP1B1 (unknown origin) expressed in HEK293-T-REx cells co-expressing POR incubated for 1 hr by resorufin dye based plate reader analysis. Type of series: ADME, cell-based.

Another series deals with CYP1A1 versus CYP1B1. Briefly: Selectivity index, ratio of IC50 for CYP1A1 (unknown origin) to IC50 for CYP1B1 (unknown origin). Conditions: read-out: Ratio IC50; call rule not given here.
Series [2] concerns the target Cytochrome P450 1B1 (Homo sapiens, UniProt Q16678, T334V). The experiment in a line: Inhibition of CYP1B1 T334V mutant (unknown origin) expressed in HEK293-T-REx cells. Type of series: ADME, cell-based.
Series [3] addresses Cytochrome P450 1B1 (Homo sapiens, UniProt Q16678, T510V). Briefly: Inhibition of CYP1B1 T510V mutant (unknown origin) expressed in HEK293-T-REx cells. It counts as ADME, cell-based.
The target of series [4] is Cytochrome P450 1B1 (Homo sapiens, UniProt Q16678, S127C). The experiment in a line: Inhibition of CYP1B1 S127C mutant (unknown origin) expressed in HEK293-T-REx cells. Type of series: ADME, cell-based.
Chain of Cytochrome P450 1B1 (Homo sapiens, UniProt Q16678, S127C) (Q16678 whole entry S127C): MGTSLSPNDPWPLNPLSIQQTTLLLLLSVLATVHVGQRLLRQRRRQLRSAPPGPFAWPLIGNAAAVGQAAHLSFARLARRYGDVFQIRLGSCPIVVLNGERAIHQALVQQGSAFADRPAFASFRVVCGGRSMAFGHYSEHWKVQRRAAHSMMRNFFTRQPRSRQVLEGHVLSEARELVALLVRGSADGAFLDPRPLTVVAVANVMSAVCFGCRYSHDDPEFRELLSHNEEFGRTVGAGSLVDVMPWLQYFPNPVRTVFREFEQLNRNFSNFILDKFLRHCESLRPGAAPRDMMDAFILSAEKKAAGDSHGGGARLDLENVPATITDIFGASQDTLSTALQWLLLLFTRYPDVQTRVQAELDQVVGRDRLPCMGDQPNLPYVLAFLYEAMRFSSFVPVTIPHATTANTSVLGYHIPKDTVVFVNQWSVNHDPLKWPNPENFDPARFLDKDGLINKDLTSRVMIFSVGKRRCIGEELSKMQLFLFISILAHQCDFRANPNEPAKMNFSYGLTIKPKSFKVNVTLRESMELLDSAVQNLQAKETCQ
Series [5] can be described thus: Cytotoxicity against HEK293-T-REx cells assessed as reduction in cell viability measured after 72 hrs by resazurin dye based analysis. The conditions noted are these: for IC50: hek293-t-rex; for IC50 at 72 h: human, HEK293-T-REx cells. It counts as toxicity, Homo sapiens.
The target of series [6] is T2, Cytochrome P450 1B1. Briefly: Binding affinity to N-terminal human microsomal CYP1B1 expressed in Escherichia coli assessed as spectral dissociation constant by absorbance based analysis.
A short description of series [7]: in vitro. Conditions: rat, liver.
A short description of series [8]: in vitro. The conditions noted are these: human, liver.
Series [9] can be described thus: in vitro. Conditions: mouse, liver.

As a reminder, the IC50 is the concentration that inhibits the measured activity by half. As usually defined, the Kd is the constant that tells how readily two partners part at equilibrium. A word on the CLint scaled: it is a measure of how fast metabolising enzymes remove a compound, apart from limits set by blood flow.

Chain of Cytochrome P450 1B1 (Homo sapiens, UniProt Q16678, T510V) (Q16678 whole entry T510V): as the sequence (Q16678 whole entry S127C) above, with C127S, T510V counted along it
Chain of Cytochrome P450 1B1 (Homo sapiens, UniProt Q16678, T334V) (Q16678 whole entry T334V): as the sequence (Q16678 whole entry S127C) above, with C127S, T334V counted along it

As for `COc1ccc(OC)c2c1c(OC)cc1c(=O)cc(-c3cccc(F)c3)oc12`, the IC50 on Cytochrome P450 1A1 turned out to be 0.012 µM. As to `C#C[C@]1(O)CC[C@H]2[C@@H]3CCc4cc(O)c(-c5ccc(OC)cc5)cc4[C@H]3CC[C@@]21C`, the results for the IC50 against Cytochrome P450 1B1 [1] and on Cytochrome P450 1A1 were 0.37 µM and 9.2 µM, respectively. Besides, the selectivity ratio in the series with CYP1A1 versus CYP1B1 is 25. With `COc1cc(/C=C/c2ccc(OC)cc2OC)cc(OC)c1`, the “inhibition (INH)” value on Cytochrome P450 1B1 [2] is on record as “Not Active”; against Cytochrome P450 1B1 [3], “Not Active”; against Cytochrome P450 1B1 [4], “Active”. Further, the IC50 in [5] is 1.3 µM. As for `COc1ccc(-c2nc(-c3ccc(C#N)cc3)cs2)c(OC)c1`, the “inhibition (INH)” value against Cytochrome P450 1B1 [2] and against Cytochrome P450 1B1 [3] was “Not Active” each time. The IC50 in series [5] was > 100 µM. Turning to `COc1cc(OC)cc(-c2cccc(-c3cc(OC)cc(OC)c3)c2)c1`, the concentration for half-maximal inhibition (IC50) in series [5] worked out at 4.18 µM. Turning to `COc1ccc(-c2nc(-c3ccc(F)cc3)cs2)c(OC)c1`, in series [5], the 50% inhibitory concentration (IC50) was found to be 51.4 µM.

Turning to `COc1ccc(/C=C/c2ccncc2)c(OC)c1`, the IC50 against Cytochrome P450 1A1 amounted to 4.57 µM. Turning to `COc1cc(OC)cc(-c2cncc(-c3cc(OC)cc(OC)c3)c2)c1`, in series [5], the IC50 is 0.18 µM. As for `COc1cc(OC)cc(-c2csc(-c3cc(OC)cc(OC)c3)n2)c1`, the IC50 at 72 h in series [5] was 10 µM. As to `COc1ccc(-c2nc(-c3ccc(O)cc3)cs2)c(OC)c1`, the values for the IC50 (on Cytochrome P450 1B1 [1]; in series [5]) were 0.6 µM and 3.4 µM, respectively. Moreover, the Kd at Cytochrome P450 1B1 [6] was found to be 0.35 µM. Regarding `COc1ccc(-c2nc(-c3cccnc3)cs2)c(OC)c1`, in series [5], the IC50 was 26.7 µM. Same read-out and setting: the figure for `COc1ccc(-c2cccc(-c3ccc(OC)cc3OC)c2)c(OC)c1` is 1.62 µM; for `COc1ccc(-c2csc(-c3ccc(OC)cc3OC)n2)c(OC)c1` it is ~100 µM. Regarding `COc1cc(OC)cc(-c2ccnc(-c3cc(OC)cc(OC)c3)n2)c1`, the IC50 at 72 h in series [5] worked out at 10 µM.

`COc1ccc(-c2csc(-c3ccc(OC)cc3OC)n2)cc1`: the IC50 in series [5] was > 100 µM.

Regarding `COc1cc(OC)cc(-c2ccc(-c3cc(OC)cc(OC)c3)s2)c1`, in series [5], the IC50 is > 10 µM.

In the case of `COc1cc(OC)cc(-c2cc(-c3cc(OC)cc(OC)c3)ncn2)c1`, the IC50 in [5] is 10 µM. As to `O=c1cc(-c2ccccc2)oc2c1ccc1ccccc12` [ALPHA-NAPHTHOFLAVONE], the figures for the “inhibition (INH)” value against Cytochrome P450 1B1 [2], against Cytochrome P450 1B1 [3] and against Cytochrome P450 1B1 [4] were “Not Active”, “Active” and “Active”, respectively. In series [5], the IC50 was determined as 14.8 µM. In the case of `O=C(O)Cc1ccccc1Nc1c(Cl)cccc1Cl` [DICLOFENAC], the CLint scaled at 100 µM amounted to 142 mL/min/kg in the series “in vitro [7]”, 324 mL/min/kg in the series “in vitro [8]” and 178 mL/min/kg in “in vitro [9]”.
